Test results from PubChem BioAssay AID1963834 (Molecular Pharmacology Branch, DTP, NCI, 2024).
“And” between values parts separate entries of the source, which are not always exact repeats. Identical values can stand only once.

Tested on: 873145-292-R-J1-PDC complex spheroid viability
Assay: Anticancer human tumor 873145-292-R-J1-PDC patient-derived renal clear cell carcinoma cell line growth inhibition [POLQ]
Settings: for viability, T/C: stronger effect = lower value
Experimental: Multicellular complex tumor spheroid response to Polymerase (POL) inhibitors (novobiocin, ART-558, RP6685) in combination with a variety of drugs and investigational agents in selected tumor cell lines
The POL inhibitors (novobiocin, ART-558, and RP6685) were evaluated both individually and in combination with standard of care and investigational anticancer small molecules within a complex spheroid model of solid tumors. . Complex spheroids include a stromal component modeled by human endothelial cells (HUVEC) and fibroblasts modeled by human mesenchymal stem cells (MSCs). The concentration ranges selected for each drug and investigational agent were based upon clinically achievable concentrations if the clinical Cmax of the agent was known.
Compounds. The drugs and investigational agents: novobiocin (NSC847541), ART-558 (NSC835418), RP-6685 (NSC848927), peposertib (NSC802822), ceralasertib (NSC780249), elimusertib (NSC800525), camonsertib (NSC841442), AZD-1390 (NSC803789), olaparib (NSC753686), talazoparib (NSC767125), rucaparib (NSC756644), sotorasib (NSC818433), MRTX-1133 (NSC836407), SN-38 (NSC673596), topotecan (NSC609699), epotoside (NSC141540), doxorubicin (NSC123127), gemcitabine (NSC613327), 5-fluorouracil (NSC19893), paclitaxel (NSC125973), vemurafenib (NSC761431), MSA-2 (NSC828583), SN-011 (NSC837082), adavosertib (NSC754352), prexasertib (NSC758257), carboplatin (NSC241240) and oxaliplatin (NSC266046), were obtained from the National Cancer Institute (NCI) Developmental Therapeutics Program Chemical Repository (21). The FDA-approved anticancer drug set is available from the Developmental Therapeutics Program at https://dtp.cancer.gov/organization/dscb/obtaining/. […] The stock solutions were prepared in dimethyl sulfoxide (DMSO, Sigma-Aldrich, St. Louis, MO, cat. D2650), except for the platinum compounds which were prepared in saline (Quality Biological, Gaithersburg, MD, cat. 114-055-101), at 800-fold the tested concentration and stored at -70 degrees C prior to their use. All drugs and investigational agents were tested over a range starting from a high concentration at or near the clinical Cmax and decreasing in half-log increments. If the clinical Cmax for an agent had not been determined, the highest concentration tested was 10 microM, except for SN-38, which was tested at a high concentration of 1 microM.
Cell Culture. All cells were maintained in an incubator at 37 degrees C and 5% CO2 with 95% humidity. The PDC lines were cultured according to standard operating procedures established by the NCI PDMR (https://pdmr.cancer.gov). Table 3 of the manuscript, lists the cell lines along with the number of the three cell types plated to form the mct-spheroids and media for tumor cell growth. After thawing, all PDC lines, except 997537-175-T-J1-PDC and 415267-285-R-J2-PDC, were cultured in Matrigel-coated flasks prepared with a working solution of 1X Ham's F-12 nutrient mix, without supplementation (Thermo Fisher Scientific, cat. 11765054), 100 U/mL penicillin-streptomycin (Thermo Fisher Scientific, cat. 15140122), and 2.5% Matrigel (Corning Inc., Corning, NY, cat. 354248) for the first three passages. The two PDC lines 997537-175-T-J1-PDC and 415267-285-R-J2-PDC were cultured on uncoated flasks. The 857933-349-R-J2-PDC line was cultured in 6C/Colon 1B media containing advanced DMEM/F-12 (Thermo Fisher Scientific, cat. 12634028), 10 mM HEPES (Thermo Fisher Scientific, cat. 15630080), 1X GlutaMAX supplement (Thermo Fisher Scientific, cat. 35050061), 0.1 mg/mL primocin (InvivoGen, San Diego, CA, cat. ant-pm-2), 10% defined fetal bovine serum, heat inactivated (HyClone Laboratories Inc., Logan, UT, cat. SH30070.03HI), 50% L-WRN conditioned media (ATCC, cat. CRL-3276), 1.25 mM N-Acetyl-L-cysteine (Sigma-Aldrich, cat. A9165), 10 mM nicotinamide (Sigma-Aldrich, cat. N0636), 1X B-27 supplement (Thermo Fisher Scientific, cat. 17504044), 1X N-2 supplement (Thermo Fisher Scientific, cat. […]

[1] = curve of first compound, second compound 0.0316 µM
[2] = curve of first compound, second compound 0.1 µM
[3] = curve of first compound, second compound 0.316 µM
[4] = curve of first compound, second compound 1 µM
[5] = curve of first compound, second compound 3.16 µM
[6] = curve of first compound, second compound 10 µM
[7] = second compound 0.0316 µM, first compound 0.0316 µM
[8] = second compound 0.0316 µM, first compound 0.1 µM
[9] = second compound 0.0316 µM, first compound 0.316 µM
[10] = second compound 0.0316 µM, first compound 1 µM
[11] = second compound 0.1 µM, first compound 0.0316 µM
[12] = second compound 0.1 µM, first compound 0.1 µM
[13] = second compound 0.1 µM, first compound 0.316 µM
[14] = second compound 0.1 µM, first compound 1 µM
[15] = second compound 0.316 µM, first compound 0.0316 µM
[16] = second compound 0.316 µM, first compound 0.1 µM
[17] = second compound 0.316 µM, first compound 0.316 µM
[18] = second compound 0.316 µM, first compound 1 µM
[19] = second compound 1 µM, first compound 0.0316 µM
[20] = second compound 1 µM, first compound 0.1 µM
[21] = second compound 1 µM, first compound 0.316 µM
[22] = second compound 1 µM, first compound 1 µM
[23] = second compound 3.16 µM, first compound 0.0316 µM
[24] = second compound 3.16 µM, first compound 0.1 µM
[25] = second compound 3.16 µM, first compound 0.316 µM
[26] = second compound 3.16 µM, first compound 1 µM
[27] = second compound 10 µM, first compound 0.0316 µM
[28] = second compound 10 µM, first compound 0.1 µM
[29] = second compound 10 µM, first compound 0.316 µM
[30] = second compound 10 µM, first compound 1 µM
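Further: spheroids exposed to compounds for 7 days before viability readout.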
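Wherever viability, T/C is given: luminescence signal used as surrogate for viable cell content; 100% = DMSO vehicle control viability.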

SMILES: COc1cccc2c1C(=O)c1c(O)c3c(c(O)c1C2=O)CC(O)(C(=O)CO)CC3OC1CC(N)C(O)C(C)O1 (stereo unspecified) + Nc1ccc(C#CCN(C(=O)Cc2ncc(C(F)(F)F)cc2C(F)(F)F)c2ccc(F)cc2)nn1
- IC50 [1]: 1.6 µM
- IC50 [2]: 1.64 µM
- IC50 [3]: 1.62 µM
- IC50 [4]: 1.66 µM
- IC50 [5]: 1.25 µM
- IC50 [6]: 0.877 µM
- viability, T/C [7]: 100%
- viability, T/C [8]: 86.6%
- viability, T/C [9]: 95.9%
- viability, T/C [10]: 81.7%
- viability, T/C (second compound 0.0316 µM, first compound 3.16 µM): 3.57%
- viability, T/C (second compound 0.0316 µM, first compound 10 µM): 1.97%
- viability, T/C [11]: 113%
- viability, T/C [12]: 93.3%
- viability, T/C [13]: 85.1%
- viability, T/C [14]: 84.7%
- viability, T/C (second compound 0.1 µM, first compound 3.16 µM): 3.75%
- viability, T/C (second compound 0.1 µM, first compound 10 µM): 2.69%
- viability, T/C [15]: 98.9%
- viability, T/C [16]: 91.9%
- viability, T/C [17]: 84.3%
- viability, T/C [18]: 83%
- viability, T/C (second compound 0.316 µM, first compound 3.16 µM): 4.08%
- viability, T/C (second compound 0.316 µM, first compound 10 µM): 2.88%
- viability, T/C [19]: 99.1%
- viability, T/C [20]: 85.7%
- viability, T/C [21]: 84.5%
- viability, T/C [22]: 86.2%
- viability, T/C (second compound 1 µM, first compound 3.16 µM): 3.81%
- viability, T/C (second compound 1 µM, first compound 10 µM): 3.33%
- viability, T/C [23]: 92.4%
- viability, T/C [24]: 93.9%
- viability, T/C [25]: 99%
- viability, T/C [26]: 61.4%
- viability, T/C (second compound 3.16 µM, first compound 3.16 µM): 1.38%
- viability, T/C (second compound 3.16 µM, first compound 10 µM): 2.89%
- viability, T/C [27]: 106%
- viability, T/C [28]: 97.5%
- viability, T/C [29]: 111%
- viability, T/C [30]: 42.9%
- viability, T/C (second compound 10 µM, first compound 3.16 µM): 1.14%
- viability, T/C (second compound 10 µM, first compound 10 µM): 2.84%

SMILES: CCc1c2c(nc3ccc(O)cc13)-c1cc3c(c(=O)n1C2)COC(=O)[C@]3(O)CC + Nc1ccc(C#CCN(C(=O)Cc2ncc(C(F)(F)F)cc2C(F)(F)F)c2ccc(F)cc2)nn1
- IC50 [1]: 0.143 µM
- IC50 [2]: 0.0662 µM
- IC50 [3]: 0.119 µM
- IC50 [4]: 0.114 µM
- IC50 [5]: 0.079 µM
- IC50 [6]: 0.173 µM
- viability, T/C (second compound 0.0316 µM, first compound 0.00316 µM): 104%
- viability, T/C (second compound 0.0316 µM, first compound 0.01 µM): 99.2%
- viability, T/C [7]: 62.1%
- viability, T/C [8]: 59.2%
- viability, T/C [9]: 44.1%
- viability, T/C [10]: 36.2%
- viability, T/C (second compound 0.1 µM, first compound 0.00316 µM): 106%
- viability, T/C (second compound 0.1 µM, first compound 0.01 µM): 102%
- viability, T/C [11]: 60%
- viability, T/C [12]: 48.7%
- viability, T/C [13]: 50.9%
- viability, T/C [14]: 30.2%
- viability, T/C (second compound 0.316 µM, first compound 0.00316 µM): 114%
- viability, T/C (second compound 0.316 µM, first compound 0.01 µM): 87.7%
- viability, T/C [15]: 62.2%
- viability, T/C [16]: 54.5%
- viability, T/C [17]: 44.5%
- viability, T/C [18]: 28.9%
- viability, T/C (second compound 1 µM, first compound 0.00316 µM): 99.8%
- viability, T/C (second compound 1 µM, first compound 0.01 µM): 85.2%
- viability, T/C [19]: 66.4%
- viability, T/C [20]: 51.5%
- viability, T/C [21]: 41.7%
- viability, T/C [22]: 39.9%
- viability, T/C (second compound 3.16 µM, first compound 0.00316 µM): 94.5%
- viability, T/C (second compound 3.16 µM, first compound 0.01 µM): 97.8%
- viability, T/C [23]: 67.6%
- viability, T/C [24]: 47.9%
- viability, T/C [25]: 42%
- viability, T/C [26]: 35.9%
- viability, T/C (second compound 10 µM, first compound 0.00316 µM): 111%
- viability, T/C (second compound 10 µM, first compound 0.01 µM): 94.5%
- viability, T/C [27]: 66.8%
- viability, T/C [28]: 55.8%
- viability, T/C [29]: 47.4%
- viability, T/C [30]: 34.9%

SMILES: CC1COCCN1c1cc(C2(S(C)(=N)=O)CC2)nc(-c2ccnc3[nH]ccc23)n1 (stereo unspecified)
- viability, T/C (compound 0.0316 µM): 91.7% and 96% and 106%
- viability, T/C (compound 0.1 µM): 97.2% and 92.7% and 96.5%
- viability, T/C (compound 0.316 µM): 113% and 91.9% and 99.5%
- viability, T/C (compound 1 µM): 88.5% and 94.4% and 104%
- viability, T/C (compound 3.16 µM): 81.9% and 85.5% and 81.5%
- viability, T/C (compound 10 µM): 58% and 64.2% and 54.1%
- IC50 (curve of compound): > 10 µM
